What was measured:
[1] = tested on: acute dextran sodium sulfate (DSS)-induced IBD; experiment: Acute prophylactic model of DSS-induced IBD in mice; assay type: in vivo, male C57Bl/6 mice
From the text: Acute and chronic models of dextran sodium sulfate (DSS)-induced IBD in mice were used to explore efficacy of GSNORi against this disease. Acute and chronic DSS-induced IBD are widely used and well characterized models that induce pathological changes in the colon similar to those observed in the human disease. In these models and in human disease, epithelial cells within the crypts of the colon are disrupted, leading to dysfunction of the epithelial barrier and the ensuing tissue inflammation, edema, and ulceration. GSNORi therapy may benefit IBD by restoring s-nitrosoglutathione (GSNO) levels, and thus prevent or reverse the epithelial barrier dysfunction. Experimental IBD was induced by administration of DSS in the drinking water of male C57Bl/6 mice (N=8 to 10 mice per group) for 6 consecutive days. GSNORi was dosed orally at doses of 0.1 to 10 mg/kg/day for 10 days starting two days prior to and continuing two days post DSS exposure. Two days post DSS exposure, the effect of GSNORi was assessed in a blinded fashion via endoscopy and histopathology using a five point scale ranging from a score=0 (normal tissue) through a score=4 (ulcerative tissue damage and marked pathological changes). Levels of circulating cytokines involved in inflammatory pathways were also assessed. The effect of GSNORi was compared to vehicle treated controls. The corticosteroid, prednisolone, was used as the positive control in this study and was administered daily at 3 mg/kg/day via oral dosing. Naïve mice (N=5) were also assessed as a normal tissue control.

[2] = tested on: mouse model of ovalbumin (OVA)-induced asthma; experiment: Mouse model of ovalbumin (OVA)-induced asthma: MCh-induced AHR (Penh) and eosinophil infiltrate in BALF; assay type: in vivo; settings: three oral doses of 10 mg/kg at 48 h, 24 h, and 1 h prior to assessment; p<0.05
Experimental: A mouse model of ovalbumin (OVA)-induced asthma was used to screen GSNOR inhibitors for efficacy against methacholine (MCh)-induced bronchoconstriction/airway hyper-responsiveness. This is a widely used and well characterized model that presents with an acute, allergic asthma phenotype with similarities to human asthma. Efficacy of GSNOR inhibitors was assessed using a protocol in which GSNOR inhibitors were administered after OVA sensitization and airway challenge, and prior to challenge with MCh. Bronchoconstriction in response to challenge with increasing doses of MCh was assessed using whole body plethysmography (Penh; Buxco). The amount of eosinophil infiltrate into the bronchoaveolar lavage fluid (BALF) was also determined as a measure of lung inflammation. The effects of GSNOR inhibitors were compared to vehicles and to Combivent (inhaled; IH) as the positive control.
OVA (500 μg/ml) in PBS was mixed with equal volumes of 10% (w/v) aluminum potassium sulfate in distilled water and incubated for 60 min. at room temperature after adjustment to pH 6.5 using 10 N NaOH. After centrifugation at 750×g for 5 min, the OVA/alum pellet was resuspended to the original volume in distilled water. Mice received an intraperitoneal (IP) injection of 100 μg OVA (0.2 mL of 500 μg/mL in normal saline) complexed with alum on day 0. Mice were anesthetized by IP injection of a 0.2-mL mixture of ketamine and xylazine (0.44 and 6.3 mg/mL, respectively) in normal saline and were placed on a board in the supine position. Two hundred fifty micrograms (100 μl of a 2.5 mg/ml) of OVA (on day 8) and 125 μg (50 μl of 2.5 mg/ml) OVA (on days 15, 18, and 21) were placed on the back of the tongue of each animal.
In vivo airway responsiveness to methacholine was measured 24 h after the last OVA challenge in conscious, freely moving, spontaneously breathing mice with whole body plethysmography using a Buxco chamber (Wilmington, N.C.). […] The degree of bronchoconstriction was expressed as enhanced pause (Penh), a calculated dimensionless value, which correlates with the measurement of airway resistance, impedance, and intrapleural pressure in the same mouse. Penh readings were taken and averaged for 4 min. after each nebulization challenge. Penh is calculated as follows: Penh=[(Te/Tr−1)×(PEF/PIF)], where Te is expiration time, Tr is relaxation time, PEF is peak expiratory flow, and PIF is peak inspiratory flow×0.67 coefficient. […]
After measurement of airway hyper-reactivity, the mice were exsanguinated by cardiac puncture, and then BALF was collected from either both lungs or from the right lung after tying off the left lung at the mainstem bronchus. Total BALF cells were counted from a 0.05 mL aliquot, and the remaining fluid was centrifuged at 200×g for 10 min at 4° C. […]

[3] = oral 10 mg/kg/day for 10 consecutive days, prophylactic

O=C(O)c1ccc(-c2ccc3cc(O)ccc3n2)c(Cl)c1 [Example 8, 3-chloro-4-(6-hydroxyquinolin-2-yl)benzoic acid]
decrease of percent of mice with severe colon injury scores via endoscopy [1, 3]: 44 % of vehicle control | decrease of percent of mice with severe colon injury scores via histopathology [1, 3]: 26 % of vehicle control | decrease of eosinophil infiltration in BAL [2]: 37 % of vehicle control

O=C(O)c1ccc(-c2ccc3cc(O)ccc3n2)cc1 [Example 3, 4-(6-hydroxyquinolin-2-yl)benzoic acid]
circulating inflammatory cytokines ([1]; acute DSS model, oral dosing): restored circulating inflammatory cytokines towards levels observed in untreated naïve mice | effects compared to prednisolone (positive control) ([1]; prednisolone 3 mg/kg/day oral): comparable to or greater than those observed for prednisolone | decrease of eosinophil infiltration in BAL [2]: 42 % of vehicle control
